Experiment [1] has as its system Flame Seedless grapes. The experiment is described as follows: Field table grape coloration. It is filed as in vivo. Conditions: for Number of colored clusters per 4 vines: foliar, 200 gallons/acre. As for the experimental part: ABA formulation performance was evaluated in the field using table grape coloration to assess efficacy. Treatments consisted of untreated control, ethephon control (industry standard ethylene-releasing agent), ABA technical (95% ABA solubilized in ethanol), ABA liquid formulation, and ABA water-soluble granule formulation. All treatments had 0.05% v/v Latron B-1956 surfactant included. The three ABA treatments (200 ppm ABA; 200 gallons/acre) and the ethephon control (250 ppm at 200 gallons/acre) were foliar applied with a backpack sprayer at 10 to 20% color development (June 27) on Flame Seedless grapes commercially grown in Arvin, Calif. The numbers of color clusters per 4 vines were assessed at 8 and 11 days after treatment.

Experiment [2] deals with Coleus plants. Nature of the experiment: Greenhouse Coleus wilting (drought tolerance, shelf life). It is filed as in vivo. As for the experimental part: ABA formulation performance was evaluated in the greenhouse using Coleus wilting to assess efficacy. Treatments consisted of control, ABA technical (95% ABA solubilized in ethanol), ABA liquid formulation, and ABA water-soluble granule formulation. Coleus plants were grown in four-inch diameter pots to the 6 to 8 leaf stage (n=4 plants/treatment). Water (15 mL/plant) was drench-applied to the control plants, and ABA (15 mL/plant; 250 ppm ABA) was drench applied to ABA treated plants. The plants were held in a greenhouse without irrigation until all plants wilted to a point when they were determined to be unmarketable. The plants were rated daily for the extent of wilting on a scale from 1 (no wilting) to 4 (complete wilting). A rating of 2.5 was the point at which a plant was determined to be unmarketable and the previous day was recorded as the marketable life of that plant in days.

Structures are written as SMILES.

For `O=P(O)(O)CCCl` [Ethephon control, ethephon, reference compound], the “Number of colored clusters per 4 vines” value is recorded as 6.0 in experiment [1] (8 days after treatment) and 6.7 in experiment [1] (11 days after treatment).

In the case of `CC1=CC(=O)CC(C)(C)[C@@]1(O)/C=C/C(C)=C\C(=O)O` [ABA technical, S-(+)-abscisic acid], the “Number of colored clusters per 4 vines” value in experiment [1] (8 days after treatment) is given as 9.0; in experiment [1] (11 days after treatment) it was 11.2. The “Number of colored clusters, comparison” value in experiment [1] (in vivo) is recorded as “increased the number of colored clusters more than the ethephon control”. Further, in experiment [2] (drench 15 mL/plant, 250 ppm ABA, no irrigation), the “Days of shelf life after treatment” value turned out to be 12 days. In addition, in experiment [2] (in vivo), the “Coleus wilting / shelf life, comparison” value was “delayed wilting and increased shelf life of Coleus plants”.
